Data reported in publication PMC12454493, “Insight on novel sulfamoylphenyl pyrazole derivatives as anticancer carbonic anhydrase inhibitors” (Molecular Diversity, 2024).
Values joined by “and” are separate entries in the source; they are usually repeats but may differ in a detail not shown here. Equal values may be shown once.

How the values were obtained:
[1] = system: A549/ATCC; assay: NCI-60 one-dose SRB screen (Non-Small Cell Lung Cancer); format: cell-based; settings: Homo sapiens, single dose 10 µM, 48 h, read-out: Growth inhibition percent (GI %)
Method: (§1) The National Cancer Institute (NCI) Developmental Therapeutic Program (www.dtp.nci.nih.gov) selected the 20 novel synthesized compounds 4a-e, 5a-e, 6a-c, 9a-e, 10 and 11 to test for their anticancer activity at a single dose of 10 µM using SRB assay. […] Supplementary Data S3; Table S1 presents the detailed screening results of the most promising compounds. The preliminary screening’s detailed results for the remaining compounds are elucidated in the (Supplementary Data S3; Table S2).
(§2) The guidelines of the Drug Evaluation Branch’s protocol at the NCI in Bethesda served as the basis for the in vitro anticancer screening assays. at one dose 10 µM against a panel of 60 cancer cell lines. The human tumor cell lines used belonged to nine panels: leukemia, melanoma, lung, colon, CNS, ovarian, renal, prostate and breast cancers using the sulforhodamine B (SRB) assay in a 48 h drug exposure protocol.

[2] = system: EKVX; assay: as above; format: cell-based; settings: Homo sapiens, single dose 10 µM, 48 h, read-out: Growth inhibition percent (GI %)
Method: as §1, §2

[3] = system: HOP-62; assay: as above; format: cell-based; settings: Homo sapiens, single dose 10 µM, 48 h, read-out: Growth inhibition percent (GI %)
Method: as §1, §2

[4] = system: HOP-92; assay: as above; format: cell-based; settings: Homo sapiens, single dose 10 µM, 48 h, read-out: Growth inhibition percent (GI %)
Method: as §1, §2

[5] = system: NCI-H226; assay: as above; format: cell-based; settings: Homo sapiens, single dose 10 µM, 48 h, read-out: Growth inhibition percent (GI %)
Method: as §1, §2

[6] = system: NCI-H23; assay: as above; format: cell-based; settings: Homo sapiens, single dose 10 µM, 48 h, read-out: Growth inhibition percent (GI %)
Method: as §1, §2

[7] = system: NCI-H322M; assay: as above; format: cell-based; settings: Homo sapiens, single dose 10 µM, 48 h, read-out: Growth inhibition percent (GI %)
Method: as §1, §2

[8] = system: NCI-H460; assay: as above; format: cell-based; settings: Homo sapiens, single dose 10 µM, 48 h, read-out: Growth inhibition percent (GI %)
Method: as §1, §2

[9] = system: NCI-H522; assay: as above; format: cell-based; settings: Homo sapiens, single dose 10 µM, 48 h, read-out: Growth inhibition percent (GI %)
Method: as §1, §2

[10] = system: COLO 205; assay: NCI-60 one-dose SRB screen (Colon Cancer); format: cell-based; settings: Homo sapiens, single dose 10 µM, 48 h, read-out: Growth inhibition percent (GI %)
Method: as §1, §2

[11] = system: HCC-2998; assay: NCI-60 one-dose SRB screen (Colon Cancer); format: cell-based; settings: Homo sapiens, single dose 10 µM, 48 h, read-out: Growth inhibition percent (GI %)
Method: as §1, §2

[12] = system: HCT-116; assay: NCI-60 one-dose SRB screen (Colon Cancer); format: cell-based; settings: Homo sapiens, single dose 10 µM, 48 h, read-out: Growth inhibition percent (GI %)
Method: as §1, §2

[13] = system: HCT-15; assay: NCI-60 one-dose SRB screen (Colon Cancer); format: cell-based; settings: Homo sapiens, single dose 10 µM, 48 h, read-out: Growth inhibition percent (GI %)
Method: as §1, §2

[14] = system: HT29; assay: NCI-60 one-dose SRB screen (Colon Cancer); format: cell-based; settings: Homo sapiens, HT-29, single dose 10 µM, 48 h, read-out: Growth inhibition percent (GI %)
Method: as §1, §2

[15] = system: KM12; assay: NCI-60 one-dose SRB screen (Colon Cancer); format: cell-based; settings: Homo sapiens, single dose 10 µM, 48 h, read-out: Growth inhibition percent (GI %)
Method: as §1, §2

[16] = system: SW-620; assay: NCI-60 one-dose SRB screen (Colon Cancer); format: cell-based; settings: Homo sapiens, single dose 10 µM, 48 h, read-out: Growth inhibition percent (GI %)
Method: as §1, §2

[17] = system: SF-268; assay: NCI-60 one-dose SRB screen (CNS Cancer); format: cell-based; settings: Homo sapiens, single dose 10 µM, 48 h, read-out: Growth inhibition percent (GI %)
Method: as §1, §2

[18] = system: SF-295; assay: NCI-60 one-dose SRB screen (CNS Cancer); format: cell-based; settings: Homo sapiens, single dose 10 µM, 48 h, read-out: Growth inhibition percent (GI %)
Method: as §1, §2

[19] = system: SF-539; assay: NCI-60 one-dose SRB screen (CNS Cancer); format: cell-based; settings: Homo sapiens, single dose 10 µM, 48 h, read-out: Growth inhibition percent (GI %)
Method: as §1, §2

[20] = system: SNB-19; assay: NCI-60 one-dose SRB screen (CNS Cancer); format: cell-based; settings: Homo sapiens, single dose 10 µM, 48 h, read-out: Growth inhibition percent (GI %)
Method: as §1, §2

[21] = system: SNB-75; assay: NCI-60 one-dose SRB screen (CNS Cancer); format: cell-based; settings: Homo sapiens, single dose 10 µM, 48 h, read-out: Growth inhibition percent (GI %)
Method: as §1, §2

[22] = system: U251; assay: NCI-60 one-dose SRB screen (CNS Cancer); format: cell-based; settings: Homo sapiens, U-251, single dose 10 µM, 48 h, read-out: Growth inhibition percent (GI %)
Method: as §1, §2

[23] = system: LOX IMVI; assay: NCI-60 one-dose SRB screen (Melanoma); format: cell-based; settings: Homo sapiens, single dose 10 µM, 48 h, read-out: Growth inhibition percent (GI %)
Method: as §1, §2

[24] = system: M14; assay: NCI-60 one-dose SRB screen (Melanoma); format: cell-based; settings: Homo sapiens, single dose 10 µM, 48 h, read-out: Growth inhibition percent (GI %)
Method: as §1, §2

[25] = system: MALME-3M; assay: NCI-60 one-dose SRB screen (Melanoma); format: cell-based; settings: Homo sapiens, single dose 10 µM, 48 h, read-out: Growth inhibition percent (GI %)
Method: as §1, §2

[26] = system: MDA-MB-435; assay: NCI-60 one-dose SRB screen (Melanoma); format: cell-based; settings: Homo sapiens, single dose 10 µM, 48 h, read-out: Growth inhibition percent (GI %)
Method: as §1, §2

[27] = system: SK-MEL-28; assay: NCI-60 one-dose SRB screen (Melanoma); format: cell-based; settings: Homo sapiens, single dose 10 µM, 48 h, read-out: Growth inhibition percent (GI %)
Method: as §1, §2

[28] = system: SK-MEL-5; assay: NCI-60 one-dose SRB screen (Melanoma); format: cell-based; settings: Homo sapiens, single dose 10 µM, 48 h, read-out: Growth inhibition percent (GI %)
Method: as §1, §2

[29] = system: UACC-257; assay: NCI-60 one-dose SRB screen (Melanoma); format: cell-based; settings: Homo sapiens, single dose 10 µM, 48 h, read-out: Growth inhibition percent (GI %)
Method: as §1, §2

[30] = system: IGROV1; assay: NCI-60 one-dose SRB screen (Ovarian cancer); format: cell-based; settings: Homo sapiens, IGROV-1, single dose 10 µM, 48 h, read-out: Growth inhibition percent (GI %)
Method: as §1, §2

[31] = system: OVCAR-3; assay: NCI-60 one-dose SRB screen (Ovarian cancer); format: cell-based; settings: Homo sapiens, single dose 10 µM, 48 h, read-out: Growth inhibition percent (GI %)
Method: as §1, §2

[32] = system: OVCAR-4; assay: NCI-60 one-dose SRB screen (Ovarian cancer); format: cell-based; settings: Homo sapiens, single dose 10 µM, 48 h, read-out: Growth inhibition percent (GI %)
Method: as §1, §2

[33] = system: OVCAR-5; assay: NCI-60 one-dose SRB screen (Ovarian cancer); format: cell-based; settings: Homo sapiens, single dose 10 µM, 48 h, read-out: Growth inhibition percent (GI %)
Method: as §1, §2

[34] = system: OVCAR-8; assay: NCI-60 one-dose SRB screen (Ovarian cancer); format: cell-based; settings: Homo sapiens, single dose 10 µM, 48 h, read-out: Growth inhibition percent (GI %)
Method: as §1, §2

[35] = system: SK-OV-3; assay: NCI-60 one-dose SRB screen (Ovarian cancer); format: cell-based; settings: Homo sapiens, single dose 10 µM, 48 h, read-out: Growth inhibition percent (GI %)
Method: as §1, §2

[36] = system: 786-0; assay: NCI-60 one-dose SRB screen (Renal Cancer); format: cell-based; settings: Homo sapiens, single dose 10 µM, 48 h, read-out: Growth inhibition percent (GI %)
Method: as §1, §2

[37] = system: A498; assay: NCI-60 one-dose SRB screen (Renal Cancer); format: cell-based; settings: Homo sapiens, single dose 10 µM, 48 h, read-out: Growth inhibition percent (GI %)
Method: as §1, §2

[38] = system: ACHN; assay: NCI-60 one-dose SRB screen (Renal Cancer); format: cell-based; settings: Homo sapiens, single dose 10 µM, 48 h, read-out: Growth inhibition percent (GI %)
Method: as §1, §2

[39] = system: CAKI-1; assay: NCI-60 one-dose SRB screen (Renal Cancer); format: cell-based; settings: Homo sapiens, single dose 10 µM, 48 h, read-out: Growth inhibition percent (GI %)
Method: as §1, §2

[40] = system: RXF 393; assay: NCI-60 one-dose SRB screen (Renal Cancer); format: cell-based; settings: Homo sapiens, single dose 10 µM, 48 h, read-out: Growth inhibition percent (GI %)
Method: as §1, §2

[41] = system: SN12C; assay: NCI-60 one-dose SRB screen (Renal Cancer); format: cell-based; settings: Homo sapiens, single dose 10 µM, 48 h, read-out: Growth inhibition percent (GI %)
Method: as §1, §2

[42] = system: TK-10; assay: NCI-60 one-dose SRB screen (Renal Cancer); format: cell-based; settings: Homo sapiens, single dose 10 µM, 48 h, read-out: Growth inhibition percent (GI %)
Method: as §1, §2

[43] = system: UO-31; assay: NCI-60 one-dose SRB screen (Renal Cancer); format: cell-based; settings: Homo sapiens, single dose 10 µM, 48 h, read-out: Growth inhibition percent (GI %)
Method: as §1, §2

[44] = system: DU-145; assay: NCI-60 one-dose SRB screen (Prostate Cancer); format: cell-based; settings: Homo sapiens, single dose 10 µM, 48 h, read-out: Growth inhibition percent (GI %)
Method: as §1, §2

[45] = system: PC-3; assay: NCI-60 one-dose SRB screen (Prostate Cancer); format: cell-based; settings: Homo sapiens, single dose 10 µM, 48 h, read-out: Growth inhibition percent (GI %)
Method: as §1, §2

[46] = target: hCA XII (Homo sapiens, UniProt O43570); assay: CA inhibitory activity, spectrophotometric p-NPA assay; format: biochemical; settings: p-NPA substrate, pH 7.5, 25 °C, triplicate; read-out: IC50 (µM) ± SD hCA XII
Chain of hCA XII (O43570 25-354): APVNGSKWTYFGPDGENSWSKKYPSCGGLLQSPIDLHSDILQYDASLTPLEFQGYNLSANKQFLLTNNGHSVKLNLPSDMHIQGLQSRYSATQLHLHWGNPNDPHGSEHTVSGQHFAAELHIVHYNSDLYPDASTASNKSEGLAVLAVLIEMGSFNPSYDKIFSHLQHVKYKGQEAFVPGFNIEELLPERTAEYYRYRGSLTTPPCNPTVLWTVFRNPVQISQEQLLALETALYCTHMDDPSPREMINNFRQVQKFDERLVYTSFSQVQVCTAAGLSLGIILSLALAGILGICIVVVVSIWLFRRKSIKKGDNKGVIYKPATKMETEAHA

COc1ccc(-c2nn(-c3ccc(S(N)(=O)=O)cc3)cc2C(=O)OCC(=O)Nc2ccc(S(N)(=O)=O)cc2)cc1 [Compound 4c, 2-Oxo-2-[(4-sulfamoylphenyl)amino] ethyl 3-(4-methoxyphenyl)-1-(4-sulfamoylphenyl)-1H-pyrazole-4-carboxylate]
inhibition at 10 µM [1]: < 5% | inhibition at 10 µM [2]: < 5% | inhibition at 10 µM [3]: < 5% | inhibition at 10 µM [4]: < 5% | inhibition at 10 µM [5]: < 5% | inhibition at 10 µM [6]: < 5% | inhibition at 10 µM [7]: < 5% | inhibition at 10 µM [8]: < 5% | inhibition at 10 µM [9]: < 5% | inhibition at 10 µM [10]: < 5% | inhibition at 10 µM [11]: < 5% | inhibition at 10 µM [12]: 37.5% | inhibition at 10 µM [13]: < 5% | inhibition at 10 µM [14]: < 5% | inhibition at 10 µM [15]: < 5% | inhibition at 10 µM [16]: < 5% | inhibition at 10 µM [17]: < 5% | inhibition at 10 µM [18]: < 5% | inhibition at 10 µM [19]: < 5% | inhibition at 10 µM [20]: < 5% | inhibition at 10 µM [21]: 28.7% | inhibition at 10 µM [22]: < 5% | inhibition at 10 µM [23]: < 5% | inhibition at 10 µM [24]: 43.3% | inhibition at 10 µM [25]: < 5% | inhibition at 10 µM [26]: < 5% | inhibition at 10 µM [27]: < 5% | inhibition at 10 µM [28]: < 5% | inhibition at 10 µM [29]: < 5% | inhibition at 10 µM [30]: < 5% | inhibition at 10 µM [31]: < 5% | inhibition at 10 µM [32]: < 5% | inhibition at 10 µM [33]: < 5% | inhibition at 10 µM [34]: < 5% | inhibition at 10 µM [35]: < 5% | inhibition at 10 µM [36]: 28.9% | inhibition at 10 µM [37]: < 5% | inhibition at 10 µM [38]: < 5% | inhibition at 10 µM [39]: 8.36% | inhibition at 10 µM [40]: < 5% | inhibition at 10 µM [41]: < 5% | inhibition at 10 µM [42]: < 5% | inhibition at 10 µM [43]: 11.9% | inhibition at 10 µM [44]: < 5% | inhibition at 10 µM [45]: 8.81% | IC50 [46]: 0.41 µM and 0.415 µM
